Reference: ChEMBL document CHEMBL3091292, “Towards tropomyosin-related kinase B (TrkB) receptor ligands for brain imaging with PET: radiosynthesis and evaluation of 2-(4-[(18)F]fluorophenyl)-7,8-dihydroxy-4H-chromen-4-one and 2-(4-([N-methyl-(11)C]-dimethylamino)phenyl)-7,8-dihydroxy-4H-chromen-4-one” (Bioorg Med Chem, 2013)

Columns and labels:
[1] = Octanol-phosphate buffered saline partition coefficient, log D of the compound at pH 7.4 by shake-flask method; assay type: physicochemical
Brain = assay: Biodistribution in Sprague-Dawley rat brain assessed as drug level per body weight at 230 to 876 uCi, iv after 60 mins by PET imaging analysis; assay type: ADME, organism-based; conditions: in vivo, 1 h
[2] = Half life in rat plasma by HPLC analysis; assay type: ADME, cell-free
[3] = Plasma protein binding in rat after 15 mins; assay type: ADME, cell-free; conditions: read-out: PPB (converted)
[4] = molecular target: BDNF/NT-3 growth factors receptor (Homo sapiens, UniProt Q16620); assay: Binding affinity to TrkB receptor extracellular domain (unknown origin) after 10 mins by liquid Scatchard plot analysis
Sequence of BDNF/NT-3 growth factors receptor (Q16620 whole entry, the tested form may be a part): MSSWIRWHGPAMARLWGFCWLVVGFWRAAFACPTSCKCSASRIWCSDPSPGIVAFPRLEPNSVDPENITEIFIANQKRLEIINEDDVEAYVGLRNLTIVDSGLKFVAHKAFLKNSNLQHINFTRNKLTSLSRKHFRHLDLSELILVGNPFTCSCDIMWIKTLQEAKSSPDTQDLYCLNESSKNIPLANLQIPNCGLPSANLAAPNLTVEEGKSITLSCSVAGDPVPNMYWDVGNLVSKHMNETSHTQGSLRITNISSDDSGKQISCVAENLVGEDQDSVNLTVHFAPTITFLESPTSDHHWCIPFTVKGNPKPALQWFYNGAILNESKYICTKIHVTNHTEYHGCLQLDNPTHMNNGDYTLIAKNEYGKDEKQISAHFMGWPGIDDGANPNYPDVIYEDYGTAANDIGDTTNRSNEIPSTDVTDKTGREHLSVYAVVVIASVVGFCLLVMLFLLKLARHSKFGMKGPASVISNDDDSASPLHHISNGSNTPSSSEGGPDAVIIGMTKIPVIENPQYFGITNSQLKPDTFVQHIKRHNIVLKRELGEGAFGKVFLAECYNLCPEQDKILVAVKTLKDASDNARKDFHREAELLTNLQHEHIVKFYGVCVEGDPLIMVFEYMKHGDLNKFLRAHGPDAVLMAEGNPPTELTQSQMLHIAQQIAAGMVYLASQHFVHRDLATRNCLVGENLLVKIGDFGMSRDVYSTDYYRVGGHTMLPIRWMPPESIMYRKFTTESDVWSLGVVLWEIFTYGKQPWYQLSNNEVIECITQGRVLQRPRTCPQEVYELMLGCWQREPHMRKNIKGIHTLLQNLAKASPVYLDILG

Striatum [5] = assay: Biodistribution in rat striatum after 65 mins by autoradiography relative to control in presence of 7,8-dihydroxyflavone; assay type: ADME, organism-based; conditions: in vivo
Cortex [6] = assay: Biodistribution in rat cortex after 65 mins by autoradiography relative to control in presence of 7,8-dihydroxyflavone; assay type: ADME, organism-based; conditions: in vivo
Aorta = assay: Biodistribution in Sprague-Dawley rat aorta assessed as drug level per body weight at 230 to 876 uCi, iv after 30 mins by PET imaging analysis; assay type: ADME, organism-based; conditions: in vivo, 0.5 h
Thalamus [7] = assay: Biodistribution in rat thalamus after 65 mins by autoradiography; assay type: ADME, organism-based; conditions: in vivo
Rattus norvegicus [8] = species on record: Rattus norvegicus; assay: Biodistribution in rat caudate putamen after 65 mins by autoradiography; assay type: ADME, organism-based; conditions: in vivo
Thalamus [9] = assay: Biodistribution in rat thalamus after 65 mins by autoradiography relative to control in presence of 7,8-dihydroxyflavone; assay type: ADME, organism-based; conditions: in vivo
Liver = assay: Biodistribution in Sprague-Dawley rat liver assessed as drug level per body weight at 230 to 876 uCi, iv after 120 mins by PET imaging analysis; assay type: ADME, organism-based; conditions: in vivo, 2 h
Cerebellum [10] = assay: Biodistribution in rat cerebellum after 65 mins by autoradiography relative to control in presence of 7,8-dihydroxyflavone; assay type: ADME, organism-based; conditions: in vivo
Rattus norvegicus [11] = assay: Biodistribution in Sprague-Dawley rat whole brain assessed as drug level per body weight at 230 to 876 uCi, iv after 30 mins by PET imaging analysis; assay type: ADME, organism-based; conditions: in vivo, 0.5 h
Kidney = assay: Biodistribution in Sprague-Dawley rat kidney assessed as drug level per body weight at 230 to 876 uCi, iv after 60 mins by PET imaging analysis; assay type: ADME, organism-based; conditions: in vivo, 1 h
Hippocampus [12] = assay: Biodistribution in rat hippocampus after 65 mins by autoradiography relative to control in presence of 7,8-dihydroxyflavone; assay type: ADME, organism-based; conditions: in vivo
Cerebellum [13] = assay: Biodistribution in rat cerebellum after 65 mins by autoradiography relative to control in presence of BDNF; assay type: ADME, organism-based; conditions: in vivo
Hippocampus [14] = assay: Biodistribution in rat hippocampus after 65 mins by autoradiography; assay type: ADME, organism-based; conditions: in vivo
Hippocampus [15] = assay: Biodistribution in rat hippocampus after 65 mins by autoradiography relative to control in presence of BDNF; assay type: ADME, organism-based; conditions: in vivo
Striatum [16] = assay: Biodistribution in rat striatum after 65 mins by autoradiography relative to control in presence of BDNF; assay type: ADME, organism-based; conditions: in vivo
Cortex [17] = assay: Biodistribution in rat cortex after 65 mins by autoradiography relative to control in presence of BDNF; assay type: ADME, organism-based; conditions: in vivo
Cerebral cortex = assay: Biodistribution in rat cerebral cortex after 65 mins by autoradiography; assay type: ADME, organism-based; conditions: in vivo
Thalamus [18] = assay: Biodistribution in rat thalamus after 65 mins by autoradiography relative to control in presence of BDNF; assay type: ADME, organism-based; conditions: in vivo
[19] = Drug degradation in rat plasma after 90 mins by HPLC analysis; assay type: ADME, cell-free; conditions: read-out: Drug degradation
Cerebellum [20] = assay: Biodistribution in rat cerebellum after 65 mins by autoradiography; assay type: ADME, organism-based; conditions: in vivo

## CN([11CH3])c1ccc(-c2cc(=O)c3ccc(O)c(O)c3o2)cc1
[1]
  logD: 2.8
Brain
  SUV: 0.7
[2]
  half-life: 10 min
[3]
  fraction unbound at 0.25 h: 0.81

## O=c1cc(-c2ccccc2)oc2c(O)c(O)ccc12 [7,8-DIHYDROXYFLAVONE]
[4]
  Kd: 320 nM

## O=c1cc(-c2ccc([18F])cc2)oc2c(O)c(O)ccc12
[1]
  logD: 2.2
Striatum [5]
  Drug uptake: 21%
Cortex [6]
  Drug uptake: 17%
Aorta
  SUV: 6.62
Thalamus [7]
  Drug uptake: Active
Rattus norvegicus [8]
  Drug uptake: Active
Thalamus [9]
  Drug uptake: 19%
Liver
  SUV: 6.8
Cerebellum [10]
  Drug uptake: 23%
Rattus norvegicus [11]
  SUV: 0.64
Kidney
  SUV: 4.38
Hippocampus [12]
  Drug uptake: 18%
Cerebellum [13]
  Drug uptake: 12%
Hippocampus [14]
  Drug uptake: Active
Hippocampus [15]
  Drug uptake: 10%
Striatum [16]
  Drug uptake: 14%
Cortex [17]
  Drug uptake: 16%
Cerebral cortex
  Drug uptake: Active
Thalamus [18]
  Drug uptake: 11%
[19]
  metabolised at 1.5 h: 10%
[3]
  fraction unbound at 0.25 h: 0.76
Cerebellum [20]
  Drug uptake: Active
